Source: BindingDB's records for doi:10.7270/Q2CN728N (Nmmlsc, 2008)

Each compound was assayed against T1, Bcl-2-related protein A1 (Homo sapiens, UniProt Q16548) (assay: inhibitors of Bim binding to Bfl-1, dose response, biochemical, multiplexed, bead-based flow cytometry (AID 1320)). Details: inactive by the depositor's call; pH 7.4; 4 °C.
T1 sequence (Q16548 whole entry): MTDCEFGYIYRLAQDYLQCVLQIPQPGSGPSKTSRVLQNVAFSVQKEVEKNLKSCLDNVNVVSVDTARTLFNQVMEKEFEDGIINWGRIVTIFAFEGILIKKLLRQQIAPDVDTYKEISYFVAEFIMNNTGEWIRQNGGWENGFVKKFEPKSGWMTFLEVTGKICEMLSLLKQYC

Compound	EC50 [µM]
COc1cc(C2Nc3cccc4cccc(c34)N2)ccc1OC(C)=O [Acetic acid 4-(2,3-dihydro-1H-perimidin-2-yl)-2-methoxy-phenyl ester]	11.1
COC(=O)CSc1ncnc2c1sc1nc(-c3ccco3)c3c(c12)CC(C)(C)OC3 [MLS000039339]	12.4
C/C(=C\c1ccco1)C1Nc2cccc3cccc(c23)N1 [MLS000055728]	15.8
CCOc1cc(C2Nc3cccc4cccc(c34)N2)ccc1O [MLS000068595]	37.5
COc1ccc(-n2c(NC(=O)c3ccco3)c(C#N)c3nc4ccccc4nc32)cc1 [MLS000079925]	16.1
Cc1cc2n(c1)CCn1c(C)ccc1-2 [MLS000104384]	12.6
Cc1ccc(C)n1-c1ccc(N2CCOCC2)cc1 [MLS000111760]	11.4
Clc1nc(NCc2cccnc2)nc(N2CCOCC2)n1 [MLS000121154]	30.8
CCOC(=O)C(=Cc1cccc(O)c1)c1nc2sc(C)c(C)c2c(=O)[nH]1 [MLS000393989]	9.56
S=c1[nH]cc(-c2ccccc2)n1-c1ccccc1Cl [MLS000417182]	2.23
CCCCNc1[nH]c(=S)nc2cc(OC)c(OC)cc12 [MLS000520261]	17.3
COc1ccc(C2=Nc3cccc4cccc(c34)N2)cc1 [MLS000551954]	6.49
CCOc1cccc(CNc2ccc(O)cc2)c1OCc1ccccc1Cl [MLS000580486]	1.61
CCCC(=O)OCCNc1cc(Sc2nccn2C)c2nonc2c1[N+](=O)[O-] [MLS000584441]	18.1
Cc1ccc(/C=C2/NC(=O)N(Cc3ccccc3)C2=O)o1 [MLS000698643]	2.73
COc1ccc(/C=C/C(=O)c2cc(Br)ccc(=O)c2O)cc1 [MLS000702099]	14
COc1cccc2c1C(=O)C=C(C)C2=O [MLS000702735]	28.3
COC(=O)CCC(=O)Nc1sc(Cc2ccccc2)c(C)c1C(N)=O [MLS000708819]	0.97
CCOC(=O)c1cc2c(=O)n3ccccc3nc2n(Cc2ccco2)/c1=N/C(=O)c1ccccc1OC [MLS000729830]	34.5
Cc1ccc(/C=C/C(=O)c2ccccc(=O)c2O)cc1C [MLS000756172]	14.9
CC(=O)Nc1ccc(-n2cc(-c3ccccc3)[nH]c2=S)cc1 [MLS001001946]	0.47

Results, then the compound that gave them:

EC50 [µM]	Compound
1.09	CCc1cccc(CC)c1-n1c(-c2cccnc2)n[nH]c1=S [MLS001006773]
0.61	COc1ccccc1-n1c(-c2ccccc2)c[nH]c1=S [MLS001007615]
41.1	O=C(Cn1c2ccccc2c(=O)c2ccccc21)N/N=C/c1ccc(N2CCCC2)c([N+](=O)[O-])c1 [N'-[(1E)-(3-nitro-4-pyrrolidin-1-ylphenyl)methylene]-2-(9-oxoacridin-10(9H)-yl)acetohydrazide]
19.5	O=C(Nc1ccc(N2CCOCC2)cc1)Nc1ccc2nc(-c3ccco3)c(-c3ccco3)nc2c1 [N-(2,3-di-2-furyl-6-quinoxalinyl)-N'-[4-(4-morpholinyl)phenyl]urea]
8.07	O=C(Nc1nnc(COc2ccc(Cl)cc2)s1)c1ccco1 [N-[5-[(4-chloranylphenoxy)methyl]-1,3,4-thiadiazol-2-yl]furan-2-carboxamide]
4.63	Cc1cccc(OCC(=O)NCC(=O)NN=Cc2cc(Br)ccc2OCc2ccccc2)c1 [N-[(5-bromanyl-2-phenylmethoxy-phenyl)methylideneamino]-2-[2-(3-methylphenoxy)ethanoylamino]ethanamide]
4.72	Nc1ccccc1/N=c1/ssnc1Cl [N-[(5Z)-4-chloro-5H-1,2,3-dithiazol-5-ylidene]benzene-1,2-diamine]
26.5	CC(C)C(=O)NC(c1ccccc1)c1cc([N+](=O)[O-])c2cccnc2c1O (centres undefined) [N-[(8-hydroxy-5-nitro-7-quinolinyl)-phenylmethyl]-2-methylpropanamide]
4.36	Cc1onc(-c2ccccc2)c1C(=O)Nc1nnc(COc2ccc(Cl)cc2)s1 [N-{5-[(4-chlorophenoxy)methyl]-1,3,4-thiadiazol-2-yl}-5-methyl-3-phenyl-4-isoxazolecarboxamide]
1.88	Cc1ccc(-c2cc(-c3ccc4c(c3)OCO4)c(C#N)c(N)n2)o1 [SMR000001529]
22.7	CSc1nnc2c3cc(C)ccc3n(Cc3ccccc3)c2n1 [SMR000046397]
3.02	NC(=O)c1c(N)sc2c1CCCCC2 [SMR000066289]
57.3	Nc1c(C(=O)NCc2ccco2)sc2nc3c(cc12)C(=O)CCC3 [SMR000072940]
0.85	CN(C)c1ccc(Nc2nc(-c3cccnc3)cs2)cc1 [SMR000104797]
4.09	CNC(=O)c1c(N)sc2c1CCCCC2 [SMR000111700]
15	CNc1ccc(Br)cc(C(=O)/C=C/c2cc(OC)ccc2OC)c1=O [SMR000115626]
3.9	O=C(Nc1ccc2nc(-c3ccco3)c(-c3ccco3)nc2c1)NC1CC1 [SMR000118524]
3.18	O=C(NCCO)c1ccc2nc(-c3ccco3)c(-c3ccco3)nc2c1 [SMR000121771]
67.5	N#Cc1ccc(/N=c2/ssnc2Cl)cc1 [SMR000130044]

Same assay, conditions: pH 7.4; 4 °C

Compound	EC50 [µM]
Cc1ccc(-c2cc(-c3ccc(F)cc3)nc(N)c2C#N)o1 [MLS000082831]	2.44
CCOC(=O)C1CCN(C(=O)Nc2ccc3nc(-c4ccco4)c(-c4ccco4)nc3c2)CC1 [MLS000113285]	1.18
Clc1ccc2c(N=NCc3ccccc3Br)ccnc2c1 [MLS000336087]	12.2
O=[N+]([O-])c1ccc(N=NCc2ccc(O)c(O)c2O)c(S(=O)(=O)N2CCOCC2)c1 [MLS000336720]	4.48
O=[N+]([O-])c1ccc(N2CCN(c3ccc(O)cc3)CC2)c(Cl)c1 [MLS000374649]	1.77
Cc1ccc(NC2=C(NC(=O)c3ccccc3)C(=O)c3ccccc3C2=O)cc1Cl [MLS000392290]	2.31
O=[N+]([O-])c1c(NCCO)cc(Sc2nc3ccccc3s2)c2nonc12 [MLS000520993]	0.12
O=[N+]([O-])c1c(NCCCO)cc(Sc2nc3ccccc3s2)c2nonc12 [MLS000520994]	0.61
CN(CCO)c1cc(Sc2nc3ccccc3s2)c2nonc2c1[N+](=O)[O-] [MLS000520995]	1.48
CC(=O)OCCCNc1cc(Sc2nc3ccccc3s2)c2nonc2c1[N+](=O)[O-] [MLS000521052]	0.08
O=C1C=CC(C=NNC(=O)C(=Cc2ccc([N+](=O)[O-])cc2)NC(=O)c2ccccc2)C(O)=C1O (centres undefined) [MLS000530401]	5.22
COc1ccc2c3c(cccc13)N(C)N=C2C [MLS000554700]	0.61
Cc1ccc(/C=C/C(=O)Nc2ccc([N+](=O)[O-])c(NC(=O)/C=C/c3ccc(C)o3)c2)o1 [MLS000578867]	0.83
Cc1ccc(-c2cc(C(=O)Nc3nccs3)c3ccccc3n2)o1 [MLS000579660]	9.21
Cc1nnc(Sc2cc(NCCCO)c([N+](=O)[O-])c3nonc23)s1 [MLS000674027]	0.13
Fc1ccc(C2=Nc3cccc4cccc(c34)N2)cc1 [MLS000687139]	7.63

The next lines start with the values.

EC50 [µM]	Compound
3.38	CCN(C(=O)COC(=O)c1cc(-c2ccc(C)o2)nc2ccccc12)C1CCS(=O)(=O)C1 (centres undefined) [MLS001003409]
2.87	CC1=CC(=O)c2c(O)ccc(O)c2C1=O [MLS001048870]
1.17	c1ccc(Nc2cccc(Nc3ccccc3)n2)cc1 [N,N'-diphenyl-2,6-pyridinediamine]
2.34	CC(=O)c1ccc(NC(=O)c2ccc3nc(-c4ccco4)c(-c4ccco4)nc3c2)cc1 [N-(4-acetylphenyl)-2,3-di-2-furyl-6-quinoxalinecarboxamide]
9.18	Clc1nss/c1=N\c1ccc(Br)cc1 [N-(4-bromophenyl)-4-chloro-5-dithiazolimine]
4.3	COc1ccc(CCNC(=O)c2ccc3nc(-c4ccco4)c(-c4ccco4)nc3c2)cc1OC [N-[2-(3,4-dimethoxyphenyl)ethyl]-2,3-di-2-furylquinoxaline-6-carboxamide]
1.41	COc1ccccc1NC1=C(NC(C)=O)C(=O)c2ccccc2C1=O [N-[3-(2-methoxyanilino)-1,4-dioxonaphthalen-2-yl]acetamide]
6.59	O=C(NC1=C(NC2CCS(=O)(=O)C2)C(=O)c2ccccc2C1=O)c1ccccc1 (centres undefined) [N-[3-[(1,1-dioxo-3-thiolanyl)amino]-1,4-dioxo-2-naphthalenyl]benzamide]
1.55	CC(=O)NC1=C(NC2CCS(=O)(=O)C2)C(=O)c2ccccc2C1=O (centres undefined) [N-[3-[(1,1-dioxothiolan-3-yl)amino]-1,4-dioxonaphthalen-2-yl]acetamide]
9.69	Cc1cccc(C(=O)/N=c2\c(C#N)cc3c(=O)n4cccc(C)c4nc3n2Cc2ccco2)c1 [N-[3-cyano-1-(furan-2-ylmethyl)-10-methyl-5-oxodipyrido[3,4-c:1',2'-f]pyrimidin-2-ylidene]-3-methylbenzamide]
5.3	COc1cc(CNc2ccc(N3CCCC3)cc2)cc(Cl)c1OC [N-[(3-chloranyl-4,5-dimethoxy-phenyl)methyl]-4-pyrrolidin-1-yl-aniline]
0.08	CCC(=O)N(CC)C1C(=O)C(=O)c2ccccc2C1=O (centres undefined) [N-ethyl-N-(1-hydroxy-3,4-dioxo-2-naphthalenyl)propanamide]
2.87	CC(C)(C)NC(=O)COc1ccc(CNc2ccc3[nH]c(O)nc3c2)cc1 [N-tert-butyl-2-[4-[[(2-oxidanylidene-1,3-dihydrobenzimidazol-5-yl)amino]methyl]phenoxy]ethanamide]
3.63	COc1cc(/N=c2/ssnc2Cl)cc(OC)c1OC [SMR000025034]
1.34	Cc1cc2nn(-c3cccc4ccccc34)nc2cc1N [SMR000076237]
6.53	COc1cc(/N=c2/ssnc2Cl)c(OC)cc1Cl [SMR000130043]
0.08	CCC(=O)OCCNc1cc(Sc2nc3ccccc3s2)c2nonc2c1[N+](=O)[O-] [SMR000131460]
5.04	CCOC(=O)C1=C(Cc2ccc(OC)cc2)C(=O)c2ccccc2C1=O [SMR000136995]
